Data: patent US10280170B2, “Substituted 4,5,6,7-tetrahydro-pyrazolo[1,5-a]pyrazine derivatives and 5,6,7,8-tetrahydro-4H-pyrazolo[1,5-a][1,4]diazepine derivatives as Ros1 inhibitors” (Janssen Pharmaceutica NV, priority 2014, dated 2019)
Where two headings read alike, the source gives them in different places.

Legend:
Ros1 enzyme = target: T1, Ros1 enzyme (Homo sapiens, UniProt P08922); test: Ros1 enzymatic assay; assay type: biochemical; conditions: Ros1 enzymatic assay; for IC50: read-out: ROS1 pIC50 (converted)
T1 construct: 0.5 μg/ml Ros1 enzyme
T1 sequence (P08922 28-2347): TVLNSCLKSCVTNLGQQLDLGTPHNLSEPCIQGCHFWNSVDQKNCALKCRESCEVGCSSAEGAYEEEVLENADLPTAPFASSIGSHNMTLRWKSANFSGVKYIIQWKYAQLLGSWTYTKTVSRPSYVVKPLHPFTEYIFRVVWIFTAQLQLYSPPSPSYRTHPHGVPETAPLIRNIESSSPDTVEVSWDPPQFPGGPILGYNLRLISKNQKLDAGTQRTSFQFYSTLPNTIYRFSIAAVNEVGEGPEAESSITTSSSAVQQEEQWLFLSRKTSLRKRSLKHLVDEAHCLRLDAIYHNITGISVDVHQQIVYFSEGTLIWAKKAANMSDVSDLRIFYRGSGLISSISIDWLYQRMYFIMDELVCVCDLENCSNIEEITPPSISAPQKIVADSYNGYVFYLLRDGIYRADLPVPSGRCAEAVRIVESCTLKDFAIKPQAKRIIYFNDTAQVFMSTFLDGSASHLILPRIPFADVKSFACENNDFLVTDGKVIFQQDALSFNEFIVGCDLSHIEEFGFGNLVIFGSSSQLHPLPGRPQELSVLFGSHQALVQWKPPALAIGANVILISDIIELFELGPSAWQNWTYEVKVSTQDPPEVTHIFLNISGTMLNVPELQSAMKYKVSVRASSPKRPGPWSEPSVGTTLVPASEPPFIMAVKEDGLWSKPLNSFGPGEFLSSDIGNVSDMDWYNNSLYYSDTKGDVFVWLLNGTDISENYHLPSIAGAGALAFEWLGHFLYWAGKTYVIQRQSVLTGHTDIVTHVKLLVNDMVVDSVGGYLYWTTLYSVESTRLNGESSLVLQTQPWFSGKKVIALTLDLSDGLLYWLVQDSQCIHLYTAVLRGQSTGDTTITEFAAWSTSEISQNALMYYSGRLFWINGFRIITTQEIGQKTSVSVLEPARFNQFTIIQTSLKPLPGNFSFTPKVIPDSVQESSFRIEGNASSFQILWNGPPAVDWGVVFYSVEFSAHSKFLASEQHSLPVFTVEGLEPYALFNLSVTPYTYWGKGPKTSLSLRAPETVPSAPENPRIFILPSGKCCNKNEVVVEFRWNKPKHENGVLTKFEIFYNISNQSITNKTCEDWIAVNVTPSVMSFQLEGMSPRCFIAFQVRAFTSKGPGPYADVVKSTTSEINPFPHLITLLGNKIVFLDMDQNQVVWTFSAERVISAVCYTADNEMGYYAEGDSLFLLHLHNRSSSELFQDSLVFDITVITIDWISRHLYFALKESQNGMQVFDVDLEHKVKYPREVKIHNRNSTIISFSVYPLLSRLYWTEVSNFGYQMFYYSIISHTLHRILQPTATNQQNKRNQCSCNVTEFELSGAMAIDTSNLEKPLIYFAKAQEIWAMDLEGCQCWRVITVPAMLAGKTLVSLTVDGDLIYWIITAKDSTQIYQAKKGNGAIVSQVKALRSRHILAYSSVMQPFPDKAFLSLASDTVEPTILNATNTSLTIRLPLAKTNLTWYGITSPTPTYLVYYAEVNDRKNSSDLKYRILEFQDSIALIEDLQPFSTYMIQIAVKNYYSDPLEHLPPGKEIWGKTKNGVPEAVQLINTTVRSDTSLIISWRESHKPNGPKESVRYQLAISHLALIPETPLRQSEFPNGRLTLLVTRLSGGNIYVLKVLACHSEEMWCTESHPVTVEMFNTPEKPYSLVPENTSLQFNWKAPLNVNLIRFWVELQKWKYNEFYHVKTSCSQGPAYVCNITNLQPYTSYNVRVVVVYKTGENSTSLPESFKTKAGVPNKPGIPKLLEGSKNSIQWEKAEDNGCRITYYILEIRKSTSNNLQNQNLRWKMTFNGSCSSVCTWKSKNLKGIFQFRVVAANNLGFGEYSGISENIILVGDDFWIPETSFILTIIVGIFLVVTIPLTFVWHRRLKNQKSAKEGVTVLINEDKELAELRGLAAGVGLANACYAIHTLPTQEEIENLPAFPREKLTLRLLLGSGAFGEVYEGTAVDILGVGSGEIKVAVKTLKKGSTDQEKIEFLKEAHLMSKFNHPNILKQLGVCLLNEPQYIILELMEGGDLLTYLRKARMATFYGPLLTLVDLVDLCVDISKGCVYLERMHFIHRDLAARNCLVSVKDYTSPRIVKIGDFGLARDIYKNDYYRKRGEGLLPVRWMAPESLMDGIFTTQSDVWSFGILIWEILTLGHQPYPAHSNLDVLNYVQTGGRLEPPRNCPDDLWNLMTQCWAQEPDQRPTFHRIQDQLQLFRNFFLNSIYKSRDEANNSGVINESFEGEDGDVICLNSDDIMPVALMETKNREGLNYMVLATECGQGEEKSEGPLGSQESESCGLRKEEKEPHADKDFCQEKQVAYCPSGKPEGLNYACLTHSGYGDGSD
How it was run: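 Ros1 (0.5 μg/ml in enzyme mix) was combined with a substrate mix of biotinylated IRS-Tide (6 μg/ml) and 20 μM ATP spiked with 33P-ATP in 50 mM Tris-HCl pH7.5, 10 mM MgCl2, 1 mM EGTA, 0.01% Tween-20. Reaction ran 120 min at room temperature before EDTA stop.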

[1] = target: T2, Ba/F3 cells containing Ros1 wild-type protein (Homo sapiens, UniProt P08922, cells depend on it, form not given); test: Ba/F3-Ros1 cell proliferation assay, wild-type Ros1; assay type: cell-based, murine; conditions: without IL-3
T2 construct: The background only speaks of 'a number of different unrelated proteins' and names SLC34A2-ROS1 for HCC78 cells
T2 sequence (P08922 whole entry, stated change not applied): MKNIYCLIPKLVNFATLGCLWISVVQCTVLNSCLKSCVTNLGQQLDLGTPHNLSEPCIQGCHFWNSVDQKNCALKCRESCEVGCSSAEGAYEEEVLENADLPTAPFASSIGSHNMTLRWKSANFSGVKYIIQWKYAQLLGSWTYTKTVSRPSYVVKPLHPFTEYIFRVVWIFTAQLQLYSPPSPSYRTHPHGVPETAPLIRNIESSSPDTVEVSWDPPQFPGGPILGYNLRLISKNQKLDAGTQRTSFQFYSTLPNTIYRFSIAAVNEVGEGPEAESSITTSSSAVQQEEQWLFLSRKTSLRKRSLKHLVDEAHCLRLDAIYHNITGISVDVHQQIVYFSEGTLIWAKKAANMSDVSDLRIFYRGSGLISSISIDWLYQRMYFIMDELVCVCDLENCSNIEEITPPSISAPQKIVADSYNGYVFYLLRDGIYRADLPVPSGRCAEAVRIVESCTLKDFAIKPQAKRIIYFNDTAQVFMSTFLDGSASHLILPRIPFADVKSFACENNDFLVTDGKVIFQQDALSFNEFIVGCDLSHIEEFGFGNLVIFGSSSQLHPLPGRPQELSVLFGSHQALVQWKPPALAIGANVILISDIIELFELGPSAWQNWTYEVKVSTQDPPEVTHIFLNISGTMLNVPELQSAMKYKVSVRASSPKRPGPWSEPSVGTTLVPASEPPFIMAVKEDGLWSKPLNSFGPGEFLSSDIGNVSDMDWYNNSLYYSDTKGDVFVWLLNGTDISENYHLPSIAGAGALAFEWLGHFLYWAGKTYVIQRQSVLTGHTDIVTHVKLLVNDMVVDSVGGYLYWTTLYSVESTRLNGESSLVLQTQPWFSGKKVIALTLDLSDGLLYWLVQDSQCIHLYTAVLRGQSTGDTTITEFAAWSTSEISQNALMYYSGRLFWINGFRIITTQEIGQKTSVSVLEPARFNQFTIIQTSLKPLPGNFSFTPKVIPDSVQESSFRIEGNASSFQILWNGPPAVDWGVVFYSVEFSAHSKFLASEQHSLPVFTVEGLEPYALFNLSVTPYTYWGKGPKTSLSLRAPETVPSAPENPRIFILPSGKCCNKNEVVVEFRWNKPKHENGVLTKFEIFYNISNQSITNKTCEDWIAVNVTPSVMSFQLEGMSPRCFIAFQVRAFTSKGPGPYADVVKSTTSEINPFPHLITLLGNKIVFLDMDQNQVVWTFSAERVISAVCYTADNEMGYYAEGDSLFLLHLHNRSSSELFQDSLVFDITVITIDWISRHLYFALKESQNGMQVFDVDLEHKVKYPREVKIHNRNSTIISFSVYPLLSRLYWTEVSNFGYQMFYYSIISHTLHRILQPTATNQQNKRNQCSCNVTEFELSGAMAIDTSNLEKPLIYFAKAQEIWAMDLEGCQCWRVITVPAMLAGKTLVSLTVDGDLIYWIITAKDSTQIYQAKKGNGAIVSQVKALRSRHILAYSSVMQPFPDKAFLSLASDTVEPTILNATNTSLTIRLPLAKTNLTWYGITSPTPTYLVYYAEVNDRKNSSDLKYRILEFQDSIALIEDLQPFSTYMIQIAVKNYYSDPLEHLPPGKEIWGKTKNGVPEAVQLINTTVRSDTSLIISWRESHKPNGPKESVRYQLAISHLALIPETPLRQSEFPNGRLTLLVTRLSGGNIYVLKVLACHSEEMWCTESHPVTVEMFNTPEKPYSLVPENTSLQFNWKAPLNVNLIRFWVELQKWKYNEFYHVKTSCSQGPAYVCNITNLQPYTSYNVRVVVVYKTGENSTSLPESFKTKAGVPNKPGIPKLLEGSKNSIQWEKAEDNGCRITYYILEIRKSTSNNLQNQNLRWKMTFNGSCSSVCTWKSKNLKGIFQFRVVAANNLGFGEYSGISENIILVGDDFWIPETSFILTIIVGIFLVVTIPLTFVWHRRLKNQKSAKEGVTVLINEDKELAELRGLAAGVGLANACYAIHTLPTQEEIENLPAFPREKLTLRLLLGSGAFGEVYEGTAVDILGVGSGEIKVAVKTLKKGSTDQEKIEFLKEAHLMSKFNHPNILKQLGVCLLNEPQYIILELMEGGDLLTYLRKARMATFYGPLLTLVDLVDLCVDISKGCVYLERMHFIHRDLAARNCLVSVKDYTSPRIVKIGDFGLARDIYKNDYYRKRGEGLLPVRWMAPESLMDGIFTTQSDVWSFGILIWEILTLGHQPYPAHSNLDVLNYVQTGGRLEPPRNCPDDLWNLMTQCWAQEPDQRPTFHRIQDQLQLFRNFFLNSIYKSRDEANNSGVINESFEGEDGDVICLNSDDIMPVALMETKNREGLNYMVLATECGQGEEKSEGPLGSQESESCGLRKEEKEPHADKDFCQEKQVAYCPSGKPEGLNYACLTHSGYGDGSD
How it was run: (§1)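 Ba/F3 cells expressing wild-type, L2026M or G2032R Ros1, 20000 cells/well in phenol red-free RPMI-1640 with 10% FBS, 2 mM L-glutamine, exposed to compound for 24 h at 37 °C, 5% CO2. Viability read by Alamar Blue (resazurin) fluorescence, ex 540/em 590 nm, after 4 h further incubation.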

[2] = target: Ba/F3 cells containing Ros1 with a mutation at the gatekeeper residue (L2026M) (Homo sapiens, UniProt P08922, L2026M, cells depend on it, form not given); test: Ba/F3-Ros1 cell proliferation assay, L2026M gatekeeper mutant; assay type: cell-based, murine; conditions: without IL-3
Chain of Ba/F3 cells containing Ros1 with a mutation at the gatekeeper residue (L2026M) (P08922 whole entry L2026M, form open): as the sequence (P08922 whole entry, stated change not applied) above, with L2026M counted along it
How it was run: as §1

[3] = target: Ba/F3 cells containing Ros1 with G2032R mutation (Homo sapiens, UniProt P08922, G2032R, cells depend on it, form not given); test: Ba/F3-Ros1 cell proliferation assay, G2032R crizotinib-resistance mutant; assay type: cell-based, murine; conditions: without IL-3
Chain of Ba/F3 cells containing Ros1 with G2032R mutation (P08922 whole entry G2032R, form open): as the sequence (P08922 whole entry, stated change not applied) above, with G2032R counted along it
Description: Ba/F3-Ros1 Cell Proliferation Assay
This assay was carried out with Ba/F3 cells containing three different versions of Ros1: the wild-type protein, protein with a mutation at the gatekeeper residue (L2026M), and protein with a mutation identified in a tumor from a patient that became resistant to crizotinib (Xalkori®) treatment (G2032R). Compounds were solubilized in 100% DMSO (dimethyl sulfoxide) and sprayed into polystyrene, tissue culture treated 384-well plates. A 50 μl volume of cell culture medium (phenol red free RPMI-1640, 10% FBS (fetal bovine serum), 2 mM L-Glutamine) containing 20000 Ba/F3-Ros1 cells was added to each well and the plates were placed in an incubator at 37° C. and 5% CO2. After 24 hours, 10 μl of Alamar Blue solution (0.5 mM K3Fe(CN)6, 0.5 mM K4Fe(CN)6, 0.15 mM Resazurin and 100 mM Phosphate Buffer) was added to the wells, incubated for 4 hours at 37° C. and 5% CO2 before RFU's (Relative Fluorescence Units) (ex. 540 nm., em. 590 nm.) were measured in a fluorescence plate reader.

[4] = test system: Ba/F3 cells containing Ros1 wild-type protein + IL-3; test: Ba/F3-Ros1 cell proliferation counter-screen, wild-type protein in the presence of 10 ng/ml murine IL-3; assay type: cell-based; conditions: Mus musculus, BaF3, 24 h, read-out: BaF3-ROS1 + IL3 pIC50 (converted)
How it was run: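 Ba/F3 cells expressing wild-type Ros1 were grown with 10 ng/ml murine IL-3 and test compound in RPMI-1640 with 10% FBS and 2 mM L-glutamine for 24 h at 37 °C, 5% CO2. Viability was then read as Alamar Blue (resazurin) fluorescence (ex 540/em 590 nm) after 4 h further incubation.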

[5] = test system: HCC78 non-small cell lung cancer cells; test: HCC78 cell proliferation assay; assay type: cell-based; conditions: for EC50: Homo sapiens, HCC78, 96 h, read-out: HCC-78 PROL pEC50 (converted)
How it was run: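 HCC78 NSCLC cells (~1000/well) in RPMI-1640 with 10% FBS were treated 24 h after seeding and exposed to compound for 4 days at 37 °C. Viability was read by MTT, with absorbance at 538 nm after DMSO/glycine solubilization.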

[6] = test system: Ros pY2274 in HCC78 cells; test: pROS1 immunofluorescence assay in HCC78 cells; assay type: cell-based; conditions: Homo sapiens, read-out: HCC78-pRos1 pIC50 (converted)
Description: pROS1 Immunofluorescence Assay in HCC78 Cells
Approximately 20000 HCC78 non-small cell lung cancer cells in 180 μl of cell culture medium (RPMI-1640, 10% FBS, 2 mM L-Glutamine, 10 mM Hepes, 1 mM sodium pyruvate, 4.5 g/L glucose, 1.5 g/L sodium bicarbonate, 25 μg/ml Gentamycin) were seeded in each well of a 96-well polystyrene, poly-D-lysine coated plate and incubated at 37° C. and 5% CO2. After 24 hours, compounds were diluted in cell culture medium from which 20 μl was added to the wells containing cells and incubated for 4 hours at 37° C. and 5% CO2. The medium was removed and the cells were fixed by adding 100 μl of 5% formaldehyde in TBS (tris-buffered saline) (50 mM Tris.HCl, pH 7.4, 150 mM NaCl) and incubating for 15 minutes at room temperature. The formaldehyde was removed and replaced with methanol for 10 minutes at room temperature, after which the cells were washed 3 times with TBS containing 1% Triton X-100 and incubated in Odyssee (Li-Cor) blocking buffer for 1 hour at room temperature. The cells were then incubated with the primary rabbit antibody directed against Ros pY2274 (cst-3078) diluted 1/200 in blocking buffer for 24 hours at room temperature. The cells were washed three times with TBS containing 0.1% Triton X-100 and incubated with a secondary anti-rabbit antibody conjugated to the fluorescent dye Alexafluor 680 in blocking buffer for 1 hour at room temperature. The cells were washed three times with TBS containing 0.1% Triton X-100 and left to dry before measuring RFUs (Relative Fluorescence Units) at 700 nm using a fluorescence imager.
The same experiment was performed using total Ros1 antibody (sc-6347) diluted 1/1000 instead of Ros1 pY2274 antibody and an anti-goat antibody conjugated to IRDye800cw as a secondary antibody. RFUs were measured at […]. The signals from total Ros1 detection were used to normalize the Ros1 pY2274 values.

[7] = counter-screen, wild-type, 10 ng/ml murine IL-3
[8] = HCC78 cells, 4 hours, Ros pY2274 normalized to total Ros1

Ba/3 Ros1 G2032R (-IL-3) pIC50 [3] | HCC-78 PROL pEC50 ([5]; HCC78 cells, 4 days, MTT) | ROS1 pIC50 (Ros1 enzyme) | EC50 ([5]; HCC78 cells, 4 days, MTT) | SMILES | IC50 (Ros1 enzyme) | BaF3-ROS1-IL3 pIC50 [1] | Ba/F3 Ros1 L2026M (-IL-3) pIC50 [2] | CC50 [4] | EC50 [5] | melting point | IC50 ([6]; HCC78, 4 h) | CC50 [4, 7] | IC50 [6, 8]
– | – | – | – | CC(C)c1ccc(COc2ccc(-c3c(-c4ccncc4)nn4c3C(=O)NCC4)cc2C#N)cc1 [Compound 26] | 398 nM | 6.6 | 6.5 | > 10000 nM | 794 nM | 235 °C | 631 nM | – | –
– | – | – | – | COc1cc(-c2c(-c3ccncc3)nn3c2C(=O)N(C)CC3)ccc1OCc1ccc(C(C)C)cc1 [Compound 33] | 10 nM | 7.7 | 7.4 | > 10000 nM | < 31.6 nM | 151 °C | 12.6 nM | – | –
6.8 | 6.6 | – | – | CC(C)c1ccc(COc2ccc(-c3c(-c4ccncc4)nn4c3C(=O)N(CC(O)CO)CC4)cc2)cc1 (stereo not drawn) [Compound 44] | 50.1 nM | 7.4 | 6.9 | – | – | 192 °C | – | – | –
6.9 | 7.0 | 7.3 | – | CC(O)CN1CCn2nc(-c3ccncc3)c(-c3ccc(OCc4ccc(C(C)C)cc4)cc3)c2C1=O (stereo not drawn) [Compound 46] | – | 7.5 | 7.1 | – | – | 177 °C | – | – | –
6.9 | – | – | 79.4 nM | CC(O)CN1CCn2nc(-c3ccncc3)c(-c3ccc(OCc4ccc(C(C)C)cc4)cc3)c2C1=O (stereo not drawn) [Compound 47] | 50.1 nM | 7.3 | 7.5 | – | – | – | – | > 10000 nM | –
– | – | – | – | O=C1NCCn2nc(-c3ccncc3)c(-c3ccc(OCc4ccc(C(F)(F)F)cc4)cc3)c21 [Compound 119] | 200 nM | 7.2 | 6.9 | > 10000 nM | 398 nM | 280 °C | 316 nM | – | –
– | – | – | – | O=C1NCCn2nc(-c3ccncc3)c(-c3ccc(OCC#Cc4ccccc4)cc3)c21 [Compound 142] | 126 nM | 6.9 | 6.4 | > 10000 nM | 398 nM | 245 °C | 126 nM | – | –
– | – | – | – | COc1cc(-c2c(-c3ccnc(N)c3)nn3c2C(=O)NCC3)ccc1OCc1ccc(C(C)C)cc1 [Compound 149] | 7.94 nM | 7.6 | 7.4 | > 10000 nM | < 31.6 nM | 179 °C | 12.6 nM | – | –
– | – | – | 100 nM | CC(C)c1ccc(COc2ccc(-c3c(-c4ccncn4)nn4c3C(=O)N(C(C)C)CC4)cc2)cc1 [Compound 160] | 39.8 nM | 7.3 | 7.3 | – | – | 166 °C | – | > 10000 nM | 31.6 nM
– | – | – | 1260 nM | CC(C)c1ccc(COc2ccc(-c3c(-c4ccncn4)nn4c3C(=O)N(CCN)CC4)cc2)cc1 [Compound 165] | 200 nM | 6.7 | 6.5 | – | – | 154 °C | – | > 10000 nM | 631 nM
– | – | – | 100 nM | CC(C)c1ccc(COc2ccc(-c3c(-c4ccncn4)nn4c3C(=O)N(C)CC4)cc2)cc1 [Compound 214] | 31.6 nM | 7.4 | 7.3 | – | – | 160 °C | – | > 10000 nM | 31.6 nM

SMILES | Ba/3 Ros1 G2032R (-IL-3) pIC50 [3] | HCC-78 PROL pEC50 ([5]; HCC78 cells, 4 days, MTT) | ROS1 pIC50 (Ros1 enzyme) | EC50 ([5]; HCC78 cells, 4 days, MTT) | IC50 (Ros1 enzyme) | BaF3-ROS1-IL3 pIC50 [1] | Ba/F3 Ros1 L2026M (-IL-3) pIC50 [2] | CC50 [4] | EC50 [5] | melting point | IC50 ([6]; HCC78, 4 h) | CC50 [4, 7] | IC50 [6, 8]
CC(C)c1ccc(COc2ccc(-c3c(-c4ccncc4)nn4c3C(=O)NCC4)cc2F)cc1 [Compound 18] | 7.3 | – | – | – | 10 nM | 7.7 | 7.7 | > 10000 nM | 39.8 nM | 241 °C | – | – | –
CC(C)c1ccc(C2CCc3cc(-c4c(-c5ccncc5)nn5c4C(=O)N(CCO)CC5)ccc3O2)cc1 (stereo not drawn) [Compound 200] | 6.6 | – | – | – | 126 nM | 7.3 | 6.3 | > 10000 nM | 316 nM | – | – | – | –
